Patent US9180175B2, “Methods of use for a natural Thomsen-Friedenreich disaccharide compound” (UNIVERSITY OF MARYLAND, BALTIMORE, priority 2011, dated 2015)
pIC50, pKd: −log10 of the molar value. Where two headings read alike, the source gives them in different places. Blank lines part the entries; values can stand above or below the compound they belong to.

Key:
[1] = target: T1, gal3 (Homo sapiens, UniProt P17931); test: Surface plasmon resonance (Biacore) kinetics and affinity for gal3; assay type: binding; settings: SPR, biotinylated gal3 on chip
T1 construct: made in house
T1 sequence (P17931 whole entry): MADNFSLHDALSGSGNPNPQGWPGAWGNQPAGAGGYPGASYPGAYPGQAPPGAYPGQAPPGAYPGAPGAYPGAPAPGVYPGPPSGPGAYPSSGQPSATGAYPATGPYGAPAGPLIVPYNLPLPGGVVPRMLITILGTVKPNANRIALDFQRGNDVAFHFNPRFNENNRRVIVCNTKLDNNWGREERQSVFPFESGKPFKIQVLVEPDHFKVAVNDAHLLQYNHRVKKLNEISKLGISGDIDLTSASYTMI
Method: The binding kinetics and affinity of a few carbohydrates for gal3 were measured in Surface Plasmon Resonance (SPR)-based binding assays using a Biacore™ T200 instrument (GE Healthcare). Biotinylated gal3 was attached to Biacore Sensor Chip SA (GE Healthcare) according to the instructions. For this purpose, biotinlyated gal3 was diluted into HBS-EP+ (GE Heathcare) to a concentration of 1 μg/mL and captured onto the streptavidin surface to a final level of 1750 RU. A reference surface was prepared with biotin captured onto the streptavidin. […] The binding response of small carbohydrate ligands were measured in Resonance units (RU) in real time at 10 HZ. These carbohydrates were injected for 30 seconds at 50 μL/min, and 30 seconds of dissociation data were collected. […] Raw sensorgram data were reference subtracted and blank subtracted prior to kinetic and affinity analysis. Biacore™ T200 Evaluation software was used for Steady-state affinity analysis and kinetic analysis.

[2] = target: T1, gal3; test: Solid phase binding-inhibition assay: gal3 binding to asialofetuin; settings: for IC50: read-out: I50 value (converted)
Method: Briefly, asialofetuin (0.5 μg/100 μl/well) in 0.1 M Na2CO3/0.02% NaN3 (pH 9.6) was adsorbed onto the wells of microtiter plates (Immulon; Dynatech Laboratories, Chantilly, Va.) at 37° C. for 3 h, and the bound glycoprotein was fixed with 2% formaldehyde in phosphate-buffered saline (PBS, 10 mM phosphate, 140 mM NaCl, pH 7.5) at 37° C. for 30 min. The plates were washed three times with PBS (azide-free)/0.05% Tween 20, and incubated with the gal3-biotin conjugate (10 ng/100 μl/well for binding assays) or with preincubated mixture of equal volume of conjugate and varying concentrations of test ligands (for binding-inhibition assays). After incubation for 1 h at 4° C., the plates were washed with ice-cold azide-free PBS-Tween 20, and the bound conjugate was allowed to interact with peroxidase labeled streptavidin (0.05 μg/100 μl well) in azide-free PBS-Tween for 1 h at 4° C. The plate was washed with ice-cold azide free PBS-Tween and the bound peroxidase activity was assayed with peroxidase substrate diammonium 2,2′-azinobis(3-ethylbenzothiazoline-6-sulfonate) (KPL, Rockville, Md.) (37). […] After incubation for 2 h on ice, the mix was dialyzed with PBS and purified by affinity chromatography on lactosyl-Sepharose (37). The purified gal3-biotin conjugate was dialyzed with PBS and stored in 1% BSA-50% glycerol at −20° C. until further use. […] O-Glycosidase treatment removes TF-disaccharide from protein (cleaves GalNAc-Ser/Thr linkage).

[3] = system: MOLT-4 cells; test: Gal3-mediated apoptosis of MOLT-4 cells (annexin V); assay type: cell-based, human
[4] = system: human CD8+ T cells; test: Gal3-mediated apoptosis of human CD8+ T cells (annexin V); assay type: cell-based
Text: (§1) Jurkat cells were used for gal3-mediated apoptosis at various concentration of gal3. To investigate gal3-mediated apoptosis of human CD8^+ cells, peripheral blood mononuclear cells (PBMCs) were isolated from chronic leukemia patients using Ficoll-paque density gradient method (39) followed by negative selection of CD8^+ cells with a cocktail of antibodies using a kit (BD Biosciences, MD). The presence of CD8^+ cells in the purified fraction was confirmed by staining cells with anti-CD8 antibody.

[5] = target: T2, gal4 (Homo sapiens, UniProt P56470); test: Solid phase binding-inhibition assay: gal4 binding to asialofetuin; settings: read-out: I50 value
T2 sequence (P56470 1-323): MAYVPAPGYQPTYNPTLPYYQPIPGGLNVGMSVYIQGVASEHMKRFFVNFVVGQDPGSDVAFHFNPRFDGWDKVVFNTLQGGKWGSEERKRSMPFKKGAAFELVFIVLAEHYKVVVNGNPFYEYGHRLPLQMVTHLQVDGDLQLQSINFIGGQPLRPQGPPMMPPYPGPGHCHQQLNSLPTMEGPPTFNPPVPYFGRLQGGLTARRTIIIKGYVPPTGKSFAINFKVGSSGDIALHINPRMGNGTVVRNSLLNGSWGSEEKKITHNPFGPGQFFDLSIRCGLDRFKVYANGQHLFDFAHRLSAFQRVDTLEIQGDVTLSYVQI

[6] = system: activated pmel T cells on B16 melanoma cells; test: B16 melanoma cell-associated apoptosis of activated pmel T cells; assay type: cell-based, mouse; settings: B16 monolayer about 24 h; untreated about 53%; TFD100 3.5 nM, lactose 50 μM
Method: To investigate if tumor-associated gal3 can induce tumor specific CD8 T cells, we used B16 melanoma-specific transgenic D90.1 CD8 T cells (pmel T cells) (40). After harvesting T cells from mouse spleen, cells were activated with a peptide (40), mixed with a monolayer of B16 melanoma cells and apoptosis was measured by Annexin V binding after gating with anti-CD8 antibodies.

[7] = target: gal9N (N-terminal of gal9) (UniProt O00182); test: Solid phase binding-inhibition assay: gal9N binding to asialofetuin; settings: read-out: I50 value
[8] = system: Jurkat cells; test: Gal3-mediated apoptosis of Jurkat cells; assay type: cell-based, human
Text: as §1

[9] = system: pmel T cells; test: Recombinant gal3-mediated apoptosis of tumor-specific CD8+ (pmel) T cells; assay type: cell-based, mouse
[10] = system: HUVEC; test: In vitro angiogenesis (tube formation) of HUVEC; assay type: cell-based, human; settings: recombinant gal3 5 μM, number of branching
Method: After 5 h, the microvessel formation was analyzed under phase contrast microscope at the 10× magnification. For quantitation of tube formation, the number of branching was counted in six areas (each […]) of each well and an average value was taken.

pKd [1]: 3.20 | RIA, relative inhibitory activity compared to lactose (taken as 1) ([2]; from I50 in μg/ml, Table 1): 0.47 | IC50 ([2]; gal3 binding to asialofetuin): 200 µM | IC50 ([2]; inhibition of gal3 binding to asialofetuin, Table 1): 151 µM
Compound: CC(=O)NC1C(O)OC(CO)C(O)C1OC1OC(CO)C(O)C(O)C1O (centres unmarked) [TFD, Galβ1,3GalNAc]

pKd [1]: 4.60
Compound: CC(=O)N[C@H]1C(O)O[C@H](CO)[C@@H](O[C@@H]2O[C@H](CO)[C@H](O)[C@H](O)[C@H]2O)[C@@H]1O (some centres unmarked) [N-acetyllactosamine]

pIC50 [5]: 2.00 | pIC50 [7]: 4.00
Compound: OC[C@H]1O[C@@H](O[C@H]2[C@H](O)[C@@H](O)C(O)O[C@@H]2CO)[C@H](O)[C@@H](O)[C@H]1O (some centres unmarked) [Lactose]
inhibition at 50 µM ([3]; Homo sapiens, MOLT-4): ~20% | inhibition at 50 µM ([4]; Homo sapiens, T-cell): ~67% | apoptosis of T cells reduced to [6]: 39% | inhibition at 50 µM ([8]; Homo sapiens, Jurkat): ~30%

Compound: gal3: purified recombinant galectin-3, used as inducer of angiogenesis and T cell apoptosis
cells undergoing apoptosis ([3]; gal3 5 μM, annexin V): ~50% | cells death ([4]; gal3 5 μM, flow cytometry): ~54% | cell death of non-activated CD8+ T cells ([9]; gal3 up to 15 μM, same as cells alone): ~22% | apoptosis of activated CD8+ T cells ([9]; recombinant gal3 5 μM, CD8 alone ~61%): ~76% | enhancement of tube formation [10]: ~25% | gal3-mediated apoptosis ([8]; gal3 5 μM): ~34%
